These results are taken from patent publication US6531148B1, “Therapeutic agents” (Takara Shuzo Co., Ltd., priority 1998, dated 2003).

In assay [1] the test system is α-glucosidase from rat small intestine mucous membrane. Description: α-Glucosidase inhibition test (crude enzyme from rat small intestine). The class given is biochemical. The note with it: for relative activity: control without DGE = 100%. The method, then:
(2) A crude enzyme preparation of α-glucosidase from rat small intestine mucous membrane [prepared according to the method as described in Arne Dahlqvist, Anal. Biochem., 7:18-25 (1964)] was used to measure the activity of inhibiting α-glucosidase of DGE as follows.
For the enzymatic reaction, 80 μl of a solution of sucrose, maltose, treharose or soluble starch as a substrate in 10 mM phosphate buffer (pH 7.0) buffer at a final concentration of 100 mM (0.5% for soluble starch) was added to 10 μl of a test sample solution appropriately diluted with the same buffer. 10 μl of the crude enzyme solution prepared from rat small intestine was added thereto. The mixture was reacted at 37° C. for 20 minutes.
The enzymatic reaction was assessed by adding 3 ml of a reagent for glucose measurement (Wako Pure Chemical Industries) to the reaction mixture, reacting at 37° C. for 5 minutes and then measuring the absorbance at 505 nm as the glucose content in the mixture.
The inhibitory activity of DGE on the digestion of each substrate by α-glycosidase was measured using DGE at four different concentrations according to the above-mentioned method. The activity of inhibiting α-glycosidase was expressed as a relative activity (%) defining the activity of the control without DGE as 100%.

Assay [2] deals with prostaglandin E2 production induced by LPS in RAW264.7 cells. Description: Prostaglandin E2 production inhibition test. Type of assay: cell-based. Here is the method:
RAW264.7 cells were suspended in Dulbecco's modified Eagle's medium containing 10% fetal bovine serum at a concentration of 3×10^5 cells/ml. 500 μl of the suspension was added to each well of a 48-well microtiter plate and the plate was incubated at 37° C. for 6 hours in the presence of 5% CO2. 10 μl of an aqueous solution prepared by dissolving DGE at a concentration of 0.5 mM in water and sterilizing it by filtration was added to the well. The plate was incubated for additional 0.5 or 5 hours. 10 μl of 50 μg/ml aqueous LPS solution was then added to the well. After the plate was incubated for additional 12 hours, the amount of prostaglandin E2 was measured. As control groups, a group to which LPS was not added and a group to which DGE was not added were provided.
After cultivation, the amount of prostaglandin E2 in the culture supernatant was measured using Prostaglandin E2 ELISA Kit (Neogen, Code. 404110). All of the measurements were carried out in triplicate.
RAW264.7 cells were suspended in Dulbecco's modified Eagle's medium without phenol red containing 10% fetal bovine serum and 2 mM L-glutamine at a concentration of 3×10^5 cells/ml. 500 μl of the suspension was added to each well of a 48-well microtiter plate and the plate was incubated at 37° C. for 12 hours in the presence of 5% CO2. 10 μl of 50 μg/ml aqueous lipoplysaccharide solution and 10 μl of an aqueous solution prepared by dissolving DGE-GSH prepared in Example 13-(1) at a concentration of 1 mM in water and sterilizing it by filtration were then added to the well. After the plate was incubated for additional 16 hours, the amount of prostaglandin E2 was measured. As control groups, a group to which LPS was not added and a group to which DGE-GSH was not added were provided.
After cultivation, the amount of prostaglandin E2 in the culture supernatant was measured using Prostaglandin E2 ELISA Kit (Neogen, Code. 404110).

For assay [3], the system named is inducible NO synthase (iNOS). As to the kind of experiment: iNOS expression (RT-PCR, Western blotting). The class given is cell-based. The note with it: RAW264.7 cells cultured for 4, 6 or 8 hours. The method, then: The present inventors have confirmed that the compound of formula (I), the compound of formula (II) and salts thereof inhibit the expression of iNOS. The confirmation was carried out at protein level by using Western blotting and at messenger RNA level by using RT-PCR. […] Therefore, the compound is effective in treating and preventing diseases that require inhibition of NO production for their treatment and prevention.
RNA was prepared from RAW264.7 cells cultured for 4, 6 or 8 hours under conditions similar to those described above. The amount of mRNA encoding inducible NO synthase [iNOS; Biochem. Byophys. Res. Commun., 215:148-153 (1995)] contained in the RNA was determined by the RT-PCR method.
(In general: A western blot detects proteins with antibodies after separation by electrophoresis.)

Assay [4] concerns lipid peroxide radical production. Description: Lipid peroxide radical production inhibition test. The class given is cell-based, Staphylococcus aureus 3A. The note with it: for Growth of bacteria: 37° C., 30 minutes.
A further assay relates to HL-60 cells. Description: Apoptosis induction test. The class given is cell-based. Here is the method:
(1) HL-60 cells were cultured at 37° C. in RPMI 1640 medium (Bio Whittaker) containing 10% of fetal bovine serum (JRH), which had been treated at 56° C. for 30 minutes, and suspended in RPMI 1640 medium at a concentration of 2.5×10^5 cells/4.5 ml.
500 μl of at 125 μM, 250 μM, 500 μM, 1 mM, 2 mM or 4 mM aqueous DGE solution was added to 4.5 ml of the suspension. The mixtures were incubated at 37° C. for 24 hours in the presence of 5% CO2.
The cultured cells were examined under an optical microscope.
Measurement of apoptotic cells using FACScan as described in Saibo Kogaku, Bessatsu (Cell Technology, Suppl.) Jikken Protocol Series: Apoptosis Jikken Protocol (Experimental Protocol Series: Experimental Protocols for Apoptosis) (Shujun-sha) pp. 129-130 and analysis of DNA fragmentation as described in Bio Manual UP Series: Saishin Apoptosis Jikken-ho (Bio Manual UP Series: Current Experimental Methods for Apoptosis) (Yodo-sha) pp. 61-63 were carried out using cells cultured for 24 or 48 hours in the same manner as that described above.
(2) A portion of the cells cultured for 24 hours as described in Example 2-(1) was stained with 0.4% Trypan Blue and examined under an optical microscope. The number of viable cells which were not stained and the number of dead cells which were stained blue were counted. The concentration of DGE that results in a viability of 50% [Viability50 (μM)] was determined to be 81.7 μM.

Regarding “5-L-glutathion-S-yl-2-hydroxy-3,7-dioxabicyclo[2.2.2]octan-1-ol [DGE-GSH]”, in assay [1], the “activities of inhibiting α-glycosidase” value is “also exhibited similar activities of inhibiting α-glycosidase”. The “prostaglandin E2 concentration in the medium” value in assay [2] (LPS, 10 μl of 1 mM DGE-GSH per 500 μl well, 16 hours, control 63.4 ng/ml, no addition 50.3 ng/ml) worked out at 50.7 ng/mL.

`O=C1C=CC(CO)OC1O` [DGE, L-glycero-1,5-epoxy-1αβ,6-dihydroxy-cis-hex-3-en-2-one]: the relative activity in assay [1] (substrate Maltose, DGE 0.2 mM) is 96%; in assay [1] (substrate Maltose, DGE 0.5 mM) it was 97%; in assay [1] (substrate Maltose, DGE 1.0 mM), 100%; in assay [1] (substrate Maltose, DGE 2.0 mM) it was 96%; in assay [1] (substrate Soluble starch, DGE 0.2 mM) it was 100%; in assay [1] (substrate Soluble starch, DGE 0.5 mM), 95%. The relative activity in assay [1] (substrate Soluble starch, DGE 1.0 mM) amounted to 91%; in assay [1] (substrate Soluble starch, DGE 2.0 mM) it was 92%; in assay [1] (substrate Treharose, DGE 0.2 mM), 98%; in assay [1] (substrate Treharose, DGE 0.5 mM), 96%; in assay [1] (substrate Treharose, DGE 1.0 mM), 99%; in assay [1] (substrate Treharose, DGE 2.0 mM), 100%. Besides, in assay [3], the “amplification of a DNA fragment from the iNOS mRNA” value is recorded as “no amplification of the fragment was observed”. The “activity of inhibiting lipid peroxide radical production” value in assay [4] is listed as “exhibited an activity of inhibiting lipid peroxide radical production”. The figures for the Growth of bacteria result in assay [4] (DGE 1 mM in the reaction mixture with tert-butyl hydroperoxide) and in assay [4] (DGE 10 mN in the reaction mixture with tert-butyl hydroperoxide) were “−” and “+”, respectively. Also, the “inhibition of prostaglandin E2 production, 5 hours pre-incubation with DGE compared with 0.5 hour” value in assay [2] (DGE added before LPS) was “stronger inhibition of prostaglandin E2 production”. In addition, in assay [2] (ELISA), the “inhibition of prostaglandin E2 production induced by LPS” value was “inhibited the prostaglandin E2 production induced by LPS”. In addition, the “antiproliferation activity against tumor cells due to the apoptosis-inducing activity” value in the assay on HL-60 cells was “exhibited an antiproliferation activity against tumor cells”. In addition, the DNA fragmentation result in the assay with HL-60 cells (24 or 48 hours, DGE at 50 or 100 μM) is reported as “DNA fragmentation was observed”. Further, the “final concentration at which apoptotic cells were observed” value in the assay with HL-60 cells (24 or 48 hours, FACScan) is at least 50 µM. Further, in the assay with HL-60 cells (24 hours, optical microscope), the “final concentration at which condensation of nuclei, shrinking of cells and formation of apoptotic bodies were observed” value was at least 50 µM. Also, the IC50 in the assay on HL-60 cells (Homo sapiens, 24 hours, Trypan Blue, read-out: Viability50, concentration that results in a viability of 50%) is 81.7 µM.

On to `O=C1C=CC(CO)OC1O` [κ-DGE, D-glycero-1,5-epoxy-1αβ,6-dihydroxy-cis-hex-3-en-2-one], for which the “activities of inhibiting α-glycosidase” value in assay [1] was “also exhibited similar activities of inhibiting α-glycosidase”. For the same compound, the “antiproliferation activity against tumor cells due to the apoptosis-inducing activity” value in the assay on HL-60 cells is “exhibited a similar activity”.
